Experimental data from ChEMBL document CHEMBL1157978, “In vivo wound-healing activity of oleanolic acid derived from the acid hydrolysis of Anredera diffusa” (2006).

Columns and labels:
Type in all cases: functional
[1] = test system: Mus musculus; test: Cicatrizant activity against mouse assessed as wound breaking strength per gram of body weight administered every 12 hrs measured after 48 hrs relative to control
[2] = test system: Mus musculus; test: Cicatrizant activity against mouse measured by wound breaking strength at 50 mg/ml administered every 12 hrs measured after 48 hrs relative to control
[3] = test system: Mus musculus; test: Cicatrizant activity against mouse measured by wound breaking strength at 40 ug/g administered every 12 hrs measured after 48 hrs relative to control
[4] = test system: Mus musculus; test: Cicatrizant activity against mouse measured by wound breaking strength at 30 ug/g administered every 12 hrs measured after 48 hrs relative to control
[5] = test system: Mus musculus; test: Cicatrizant activity against mouse measured by wound breaking strength at 50 ug/g administered every 12 hrs measured after 48 hrs relative to control
[6] = test system: Mus musculus; test: Cicatrizant activity against mouse measured by wound breaking strength at 60 ug/g administered every 12 hrs measured after 48 hrs relative to control
[7] = test system: Mus musculus; test: Cicatrizant activity against mouse measured by wound breaking strength at 12.5 mg/ml administered every 12 hrs measured after 48 hrs relative to control

CC(C)=CCC[C@@](C)(O)[C@@H]1CC=C(C)CC1
ED50 [1]: 155 µg
Activity [2]: 17.6%

CC1(C)CC[C@]2(C(=O)O)CC[C@]3(C)C(=CC[C@@H]4[C@@]5(C)CC[C@H](O)C(C)(C)[C@@H]5CC[C@]43C)[C@@H]2C1 [OLEANOLIC_ACID]
Activity [3]: 39.3%
Activity [4]: 25.4%
Activity [5]: 30.9%
Activity [6]: 26.2%
Activity [7]: 42.9%
